Results published in article PMC6934184, “Selective DNA-PKcs inhibition extends the therapeutic index of localized radiotherapy and chemotherapy” (The Journal of Clinical Investigation, 2019).

Biological target: T1, DYRK1B (Homo sapiens, UniProt Q9Y463)
T1 construct: purchased Thermo Fisher Scientific (Life Technologies) SelectScreen
Assay: SelectScreen Z'LYTE
Format: biochemical
Method in brief: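 Percent values come from Thermo SelectScreen profiling of NU5455, combining activity and binding assays. CSF1R was run in Z'LYTE format at Km app ATP, and CAMK1 in Adapta format with ATP listed at 10.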

T1 sequence (Q9Y463 whole entry): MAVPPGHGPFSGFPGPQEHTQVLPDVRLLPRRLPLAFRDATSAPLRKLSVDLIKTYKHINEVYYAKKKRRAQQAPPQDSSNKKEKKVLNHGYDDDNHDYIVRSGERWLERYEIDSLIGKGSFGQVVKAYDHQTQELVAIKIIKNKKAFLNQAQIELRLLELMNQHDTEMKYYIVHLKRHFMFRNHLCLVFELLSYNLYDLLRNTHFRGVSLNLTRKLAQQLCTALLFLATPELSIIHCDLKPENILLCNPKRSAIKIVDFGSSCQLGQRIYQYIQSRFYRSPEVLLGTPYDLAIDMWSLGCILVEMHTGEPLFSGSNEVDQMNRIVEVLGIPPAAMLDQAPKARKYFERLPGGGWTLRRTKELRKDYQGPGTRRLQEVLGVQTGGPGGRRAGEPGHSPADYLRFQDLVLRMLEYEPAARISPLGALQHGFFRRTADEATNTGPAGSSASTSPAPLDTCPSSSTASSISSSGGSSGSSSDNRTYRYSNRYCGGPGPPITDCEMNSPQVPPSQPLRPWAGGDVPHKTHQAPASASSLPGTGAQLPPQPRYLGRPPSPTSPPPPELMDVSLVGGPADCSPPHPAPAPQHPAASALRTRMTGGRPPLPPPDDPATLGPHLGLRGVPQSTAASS

For `CN(C(=O)CN1CCOCC1)c1ccc2sc3c(-c4cccc5c(=O)cc(N6CC7CCC(C6)O7)oc45)cccc3c2c1` [NU5455], the inhibition at 1 µM was -1.8%.
